Key:
[1] = test system: S. Aureus Smith; test: In vitro antibacterial activity, MIC (modified Autotiter method); format: cell-based, Staphylococcus aureus; conditions: 18-20 hours at 37° C.; for MIC: Staphylococcus aureus, 20 h, read-out: MIC S. Aureus Smith
Protocol: (§1) The antibacterial and antifungal activity of representative examples of the compounds of Formula I was determined using a modification of the Autotiter method described by Goss, et al. Applied Microbiology 16 (9) 1,414-1,416 (1968) in which a 1,000 mcg./ml. solution of the test compound is prepared. To the first cup of the Autotray is added 0.1 ml. of the test solution. Activation of the Autotiter initiates a sequence of operations by which 0.05 ml. of the test compound solution is withdrawn from the cup by a Microtiter transfer loop and diluted in 0.05 ml. of sterile water. Following this operation, 0.05 ml. of inoculated double-strength semisynthetic medium (glucose) is added automatically to each cup. The overall operation results in final drug concentrations ranging from 500 to 0.06 mcg./ml. in twofold decrements. […] The compounds were thus tested as solutions against a variety of gram positive and gram negative bacteria including Staphylococcus aureus, Proteus mirabilis, Escherichia coli, Klebsiella pneumoniae, Pseudomonas aeruginosa, Streptococcus pyogenes, and against such fungi as Aspergillus niger, Candida albicans and Trichophyton mentagrophytes.

[2] = test system: E. coli 100/B22; test: as above; format: cell-based, Escherichia coli; conditions: 18-20 hours at 37° C.; for MIC: Escherichia coli, 100/B22, 20 h, read-out: MIC E. coli 100/B22
Protocol: as §1

[3] = test system: E. coli AB1932-1; test: as above; format: cell-based, Escherichia coli; conditions: 18-20 hours at 37° C.; for MIC: Escherichia coli, AB19321, 20 h, read-out: MIC E. coli AB1932-1
Protocol: as §1

[4] = test system: E. coli Vogel; test: as above; format: cell-based, Escherichia coli; conditions: 18-20 hours at 37° C.; for MIC: Escherichia coli, 20 h, read-out: MIC E. coli Vogel
Protocol: as §1

[5] = test system: K. pneum. 39645; test: as above; format: cell-based, Klebsiella pneumoniae; conditions: 18-20 hours at 37° C.; for MIC: Klebsiella pneumoniae, 20 h, read-out: MIC K. pneum. 39645
Protocol: as §1

[6] = test system: P. mirab. MGH-1; test: as above; format: cell-based, Proteus mirabilis; conditions: 18-20 hours at 37° C.; for MIC: Proteus mirabilis, 20 h, read-out: MIC P. mirab. MGH-1
Protocol: as §1

[7] = test system: Ps. aerug. MGH-2; test: as above; format: cell-based, Pseudomonas aeruginosa; conditions: 18-20 hours at 37° C.; for MIC: Pseudomonas aeruginosa, 20 h, read-out: MIC Ps. aerug. MGH-2
Protocol: as §1

[8] = test system: S. pyogen. C203; test: as above; format: cell-based, Streptococcus pyogenes; conditions: 18-20 hours at 37° C.; for MIC: Streptococcus pyogenes, 20 h, read-out: MIC S. pyogen. C203
Protocol: as §1

[9] = test system: A. niger 16404; test: In vitro antifungal activity, MIC (modified Autotiter method); format: cell-based, Aspergillus niger; conditions: 18-20 hours at 37° C.; for MIC: Aspergillus niger, 16404, 20 h, read-out: MIC A. niger 16404
Protocol: as §1

[10] = test system: C. albicans 10231; test: as above; format: cell-based, Candida albicans; conditions: 18-20 hours at 37° C.; for MIC: Candida albicans, 10231, 20 h, read-out: MIC C. albicans 10231
Protocol: as §1

[11] = test system: C. albicans Wisc.; test: as above; format: cell-based, Candida albicans; conditions: 18-20 hours at 37° C.; for MIC: Candida albicans, 20 h, read-out: MIC C. albicans Wisc.
Protocol: as §1

[12] = test system: T. menta. 9129; test: as above; format: cell-based, Trichophyton mentagrophytes; conditions: 18-20 hours at 37° C.; for MIC: Trichophyton mentagrophytes, 20 h, read-out: MIC T. menta. 9129
Protocol: as §1

Row | Structure (SMILES) | MIC [1] | MIC [2] | MIC [3] | MIC [4] | MIC [5] | MIC [6] | MIC [7] | MIC [8] | MIC [9] | MIC [10] | MIC [11] | MIC [12] | also measured
1 | Nc1cc[n+](CCCCCCCC[n+]2ccc(N)cc2)cc1 [I, 1,8-bis-(4-amino-1-pyridinium)octane dibromide, reference compound] | 31.3 µg/mL | 250 µg/mL | 125 µg/mL | 125 µg/mL | > 500 µg/mL | > 500 µg/mL | > 500 µg/mL | 31.3 µg/mL | 125 µg/mL | 125 µg/mL | 125 µg/mL | 125 µg/mL | –
2 | CCCCCCCCCCCCNc1cc[n+](CCCCCCCCCCCC[n+]2ccc(NCCCCCCCCCCCC)cc2)cc1 [Example 75, 1,12-bis-[4-(dodecylamino)-1-pyridinium]dodecane dibromide] | 31.3 µg/mL | > 62.5 µg/mL | > 62.5 µg/mL | > 62.5 µg/mL | > 62.5 µg/mL | > 62.5 µg/mL | > 62.5 µg/mL | 15.6 µg/mL | > 62.5 µg/mL | > 62.5 µg/mL | > 62.5 µg/mL | 15.6 µg/mL | –
3 | CCCCCCCNc1cc[n+](CCCCCC[n+]2ccc(NCCCCCCC)cc2)cc1 [Example 62C, 1,6-bis-[4-(heptylamino)-1-pyridinium]hexane dichloride] | – | – | – | – | – | – | – | – | – | – | – | – | MIC S. Aureus Smith [1]: 0.24 µg/mL; MIC E. coli 100/B22 [2]: 1.95 µg/mL; MIC E. coli AB1932-1 [3]: 1.95 µg/mL; MIC E. coli Vogel [4]: 3.9 µg/mL; MIC K. pneum. 39645 [5]: 3.9 µg/mL; MIC P. mirab. MGH-1 [6]: > 125 µg/mL; MIC Ps. aerug. MGH-2 [7]: > 62.5 µg/mL; MIC S. pyogen. C203 [8]: 0.98 µg/mL; MIC A. niger 16404 [9]: 7.8 µg/mL; MIC C. albicans 10231 [10]: 3.9 µg/mL; MIC C. albicans Wisc. [11]: 3.9 µg/mL; MIC T. menta. 9129 [12]: 3.9 µg/mL
4 | Fc1ccc(Nc2cc[n+](CCCCCCCC[n+]3ccc(Nc4ccc(F)cc4)cc3)cc2)cc1 [Example 84, 1,8-bis-[4-p-fluorophenylamino)-1-pyridinium]octane dibromide] | 1.95 µg/mL | 15.6 µg/mL | 7.8 µg/mL | 15.6 µg/mL | > 62.5 µg/mL | > 125 µg/mL | > 62.5 µg/mL | 7.8 µg/mL | 15.6 µg/mL | 15.6 µg/mL | 7.8 µg/mL | 15.6 µg/mL | –
5 | CCCCCCCCCNc1cc[n+](CCCCCC[n+]2ccc(NCCCCCCCCC)cc2)cc1 [Example 47, 1,6-bis-[4-(nonylamino)-1-pyridinium]-hexane dibromide] | 0.5 µg/mL | 1.95 µg/mL | 1.95 µg/mL | 1 µg/mL | 3.9 µg/mL | 3.9 µg/mL | 15.6 µg/mL | 1 µg/mL | – | 3.9 µg/mL | 1.95 µg/mL | 1 µg/mL | MIC A. niger 16404 [9]: 15.6 µg/mL
6 | c1c[n+](CCCCCCCC[n+]2ccc(NC3CCCCC3)cc2)ccc1NC1CCCCC1 [Example 38, 1,8-bis-[4-(cyclohexylamino)-1-pyridinium]octane dibromide] | 3.9 µg/mL | 62.5 µg/mL | 31.3 µg/mL | 62.5 µg/mL | > 125 µg/mL | > 125 µg/mL | 250 µg/mL | 0.93 µg/mL | 15.6 µg/mL | 31.3 µg/mL | 31.3 µg/mL | 3.9 µg/mL | –
7 | CCCCCCCCCNc1cc[n+](CCCCCC[n+]2ccc(NCCCCCCCCC)cc2)cc1 [Example 48] | – | – | – | – | – | – | – | – | – | – | – | – | MIC S. Aureus Smith [1]: 1.0 µg/mL; MIC E. coli 100/B22 [2]: 1.95 µg/mL; MIC E. coli AB1932-1 [3]: 1.95 µg/mL; MIC E. coli Vogel [4]: 1.95 µg/mL; MIC K. pneum. 39645 [5]: 3.9 µg/mL; MIC P. mirab. MGH-1 [6]: 7.8 µg/mL; MIC Ps. aerug. MGH-2 [7]: 15.6 µg/mL; MIC S. pyogen. C203 [8]: 1.0 µg/mL; MIC A. niger 16404 [9]: 3.9 µg/mL; MIC C. albicans 10231 [10]: 1.95 µg/mL; MIC C. albicans Wisc. [11]: 1.95 µg/mL; MIC T. menta. 9129 [12]: 1.0 µg/mL
8 | CCCCCCCCCCNc1cc[n+](CCCCCCCC[n+]2ccc(NCCCCCCCCCC)cc2)cc1 [Example 66, 1,8-bis-[4-(decylamino)-1-pyridinium]octane dibromide] | 1 µg/mL | 3.9 µg/mL | 7.8 µg/mL | 1.95 µg/mL | 3.9 µg/mL | 7.8 µg/mL | 7.8 µg/mL | 1.95 µg/mL | 15.6 µg/mL | 7.8 µg/mL | 15.6 µg/mL | 1.95 µg/mL | –
9 | CCCCCCCCCCNc1cc[n+](CCCCCC[n+]2ccc(NCCCCCCCCCC)cc2)cc1 [Example 64B, 1,6-bis-[4-(decylamino)-1-pyridinium]hexane dibromide] | 1 µg/mL | 7.8 µg/mL | 1.95 µg/mL | 1.95 µg/mL | 3.9 µg/mL | 1.95 µg/mL | 7.8 µg/mL | 1 µg/mL | 7.8 µg/mL | 1.95 µg/mL | 3.9 µg/mL | 1 µg/mL | –
10 | Clc1ccc(Nc2cc[n+](CCCC[n+]3ccc(Nc4ccc(Cl)cc4)cc3)cc2)cc1 [Example 76C, 1,4-bis-[4-(p-chlorophenylamino)-1-pyridinium]butane dimethanesulfonate] | 7.8 µg/mL | 15.6 µg/mL | 7.8 µg/mL | 15.6 µg/mL | > 250 µg/mL | > 250 µg/mL | > 125 µg/mL | 1.95 µg/mL | > 250 µg/mL | 125 µg/mL | 12.5 µg/mL | 62.5 µg/mL | –
11 | CCCCCCCCCCNc1cc[n+](CCCCCCCCCC[n+]2ccc(NCCCCCCCCCC)cc2)cc1 [Example 68, 1,10-bis-[4-(decylamino)-1-pyridinium]decane dibromide] | 1.95 µg/mL | 15.6 µg/mL | 15.6 µg/mL | 7.8 µg/mL | 31.3 µg/mL | 7.8 µg/mL | 15.6 µg/mL | 3.9 µg/mL | 15.6 µg/mL | 15.6 µg/mL | 15.6 µg/mL | 3.9 µg/mL | –
12 | CCCCCCCCNc1cc[n+](CCCCCCC[n+]2ccc(NCCCCCCCC)cc2)cc1 [Example 43, 1,7-bis-[4-(octylamino)-1-pyridinium]heptane dibromide] | 0.5 µg/mL | 1 µg/mL | 1 µg/mL | 1.95 µg/mL | 1 µg/mL | 7.8 µg/mL | 31.3 µg/mL | 1 µg/mL | 7.8 µg/mL | 1.95 µg/mL | 1.95 µg/mL | 1 µg/mL | –
13 | CCCCCCCCCCCCNc1cc[n+](CCCCCC[n+]2ccc(NCCCCCCCCCCCC)cc2)cc1 [Example 70, 1,6-bis-[4-(dodecylamino)-1-pyridinium]hexane dibromide] | 7.8 µg/mL | 62.5 µg/mL | > 62.5 µg/mL | 31.3 µg/mL | > 62.5 µg/mL | > 62.5 µg/mL | > 62.5 µg/mL | 7.8 µg/mL | 62.5 µg/mL | 15.6 µg/mL | 31.3 µg/mL | 7.8 µg/mL | –
14 | Clc1ccc(Nc2cc[n+](CCCCCCCC[n+]3ccc(Nc4ccc(Cl)cc4)cc3)cc2)cc1 [Example 78B, 1,8-bis-[4-(p-chlorophenylamino)-1-pyridinium]octane dimethanesulfonate] | 0.4 µg/mL | 3.1 µg/mL | 1.6 µg/mL | 3.1 µg/mL | 31.3 µg/mL | 125 µg/mL | 125 µg/mL | 0.2 µg/mL | 31.3 µg/mL | 62.5 µg/mL | 62.5 µg/mL | 31.3 µg/mL | –
